# From article PMC5516258, “A Nonredundant Phosphopantetheinyl Transferase, PptA, Is a Novel Antifungal Target That Directs Secondary Metabolite, Siderophore, and Lysine Biosynthesis in Aspergillus fumigatus and Is Critical for Pathogenicity” (mBio, 2017)
# Read-outs that look alike come from different tables or passages of the source.
# Assays:
# [1] = molecular target: T1, PptA (AFPptA; AFPptA-GST) (Aspergillus fumigatus, UniProt B0XWE4); test: fluorescence polarization, transfer of BODIPY-TMR-labelled phosphopantetheine from CoA to AarA; format: biochemical
# T1 construct: gene AFUB_024520
# HS-PPTase (AASDHPPT) = molecular target: T2, HS-PPTase (AASDHPPT) (Homo sapiens, UniProt Q9NRN7); test: fluorescence polarization, transfer of BODIPY-TMR-labelled phosphopantetheine from CoA to human ACP domain; format: biochemical; details: read-out: no inhibition at concentrations up to 200 μM
# T2 construct: cDNA cloned into pET43.1, E. coli BL21(DE3), Ni-NTA purified
# T2 sequence (Q9NRN7 1-309): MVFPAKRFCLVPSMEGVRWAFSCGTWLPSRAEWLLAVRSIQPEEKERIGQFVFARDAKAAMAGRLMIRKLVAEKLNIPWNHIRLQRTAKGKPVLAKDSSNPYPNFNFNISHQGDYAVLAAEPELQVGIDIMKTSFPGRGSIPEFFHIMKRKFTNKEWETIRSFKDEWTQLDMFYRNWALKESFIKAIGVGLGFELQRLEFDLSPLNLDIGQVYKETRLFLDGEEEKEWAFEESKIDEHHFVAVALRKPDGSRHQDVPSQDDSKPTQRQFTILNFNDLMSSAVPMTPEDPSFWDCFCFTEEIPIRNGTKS
# T1 sequence (B0XWE4 entry or part of it): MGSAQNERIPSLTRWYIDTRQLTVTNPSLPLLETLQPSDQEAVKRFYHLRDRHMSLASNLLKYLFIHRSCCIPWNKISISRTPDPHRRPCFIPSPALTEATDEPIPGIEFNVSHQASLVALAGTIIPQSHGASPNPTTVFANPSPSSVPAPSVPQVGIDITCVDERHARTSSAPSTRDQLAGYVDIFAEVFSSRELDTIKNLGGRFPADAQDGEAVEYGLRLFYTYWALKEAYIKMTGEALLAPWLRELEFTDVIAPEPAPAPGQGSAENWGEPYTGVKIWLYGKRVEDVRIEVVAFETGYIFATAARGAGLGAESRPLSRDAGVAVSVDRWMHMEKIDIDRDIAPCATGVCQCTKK
SMILES,IC50 [1] [µM],IC50 (HS-PPTase (AASDHPPT)) [µM],"IC50 ([1]; acceptor A. fumigatus AarA 750 ng, BODIPY-TMR-CoA, 62.5 mM bis-Tris pH 6.5, 12.5 mM Mg chloride, room temperature, 100 ng PptA, triplicate, doubling dilutions from 100 µM) [µM]"
"O=Nc1ccc2oc(=O)ccc2c1 [6-nitroso-1,2-benzopyrone]",35.2,> 200,
Clc1ccc(C(c2ccc(Cl)cc2)n2cc[n+](CC(OCc3ccc(Cl)cc3Cl)c3ccc(Cl)cc3Cl)c2)cc1 (stereo not shown) [calmidazolium chloride],,,19.2
"N=C1Sc2ccccc2C2=NCCCN12 [PD 404,182]",3.9,,
